Key:
[1] = mn = molality of the nth substance listed, in mol/kg; conditions: 101.3 kPa, Liquid; for viscosity: Capillary tube (Ostwald / Ubbelohde) method; for mass density: Pycnometric method
[2] = 101.3 kPa, Liquid, Capillary tube (Ostwald / Ubbelohde) method

O [water] + CCCC(CCC)C(=O)[O-].[Na+]
[1], m2 = 0
Conditions | viscosity [mPa·s]
288.15 K | 1.138
298.15 K | 0.8903
308.15 K | 0.7195

O=C[C@H](O)[C@@H](O)[C@H](O)[C@H](O)CO [D-glucose] + O
[1], m1 = 0.06
Conditions | mass density [kg/m3] | viscosity [mPa·s]
288.15 K | 1003.25 | 1.174
298.15 K | 1001.17 | 0.9111
308.15 K | 998.15 | 0.7299

O [water]
[2]
Conditions | viscosity [mPa·s]
288.15 K | 1.138
298.15 K | 0.8903
308.15 K | 0.7195

[Cl-].[Na+] [sodium chloride] + O
[1], m1 = 0.06
Conditions | mass density [kg/m3] | viscosity [mPa·s]
288.15 K | 1001.64 | 1.146
298.15 K | 999.52 | 0.896
308.15 K | – | 0.7233

CCCC(CCC)C(=O)[O-].[Na+] [sodium valproate] + O
[1]
Conditions | mass density, 288.15 K [kg/m3] | mass density, 298.15 K [kg/m3] | mass density, 308.15 K [kg/m3] | viscosity, 288.15 K [mPa·s] | viscosity, 298.15 K [mPa·s] | viscosity, 308.15 K [mPa·s]
m1 = 0.01 | – | 997.43 | 994.42 | – | 0.8988 | 0.7252
m1 = 0.0102 | 999.51 | – | – | 1.153 | – | –
m1 = 0.0191 | 999.84 | 997.79 | – | 1.162 | 0.9064 | –
m1 = 0.02 | – | – | 994.78 | – | – | 0.7296
m1 = 0.0245 | 1000.06 | 997.98 | – | 1.169 | 0.9122 | –
m1 = 0.0303 | – | – | 995.13 | – | – | 0.7345
m1 = 0.0305 | 1000.3 | 998.22 | – | 1.177 | 0.9166 | –
m1 = 0.0401 | 1000.66 | 998.56 | – | 1.187 | 0.9238 | –
m1 = 0.0405 | – | – | 995.53 | – | – | 0.7397
m1 = 0.0453 | 1000.87 | 998.75 | – | 1.195 | 0.9268 | –
m1 = 0.0497 | – | – | 995.89 | – | – | 0.7444
m1 = 0.0501 | 1001.04 | 998.91 | – | 1.201 | 0.9318 | –
m1 = 0.0605 | – | – | 996.24 | – | – | 0.7499
m1 = 0.0608 | 1001.43 | 999.3 | – | 1.213 | 0.9391 | –
m1 = 0.0706 | 1001.79 | 999.64 | – | 1.225 | 0.9476 | –
m1 = 0.0708 | – | – | 996.63 | – | – | 0.7552
m1 = 0.08 | 1002.15 | 999.96 | – | 1.238 | 0.9558 | –
m1 = 0.0844 | – | – | 997.07 | – | – | 0.7617
m1 = 0.0902 | – | – | 997.29 | – | – | 0.7645
m1 = 0.0924 | 1002.59 | 1000.39 | – | 1.252 | 0.9653 | –
m1 = 0.0959 | – | – | 997.48 | – | – | 0.7686
m1 = 0.101 | – | – | 997.66 | – | – | 0.7716
m1 = 0.1021 | 1002.93 | 1000.72 | – | 1.262 | 0.9733 | –
m1 = 0.1154 | – | – | 998.16 | – | – | 0.7769

Reference: the NIST ThermoML archive (doi:10.1016/j.jct.2015.06.025)
